Source: patent publication US20230312529A1, “PYRIMIDINE SMALL-MOLECULE COMPOUND AND APPLICATION THEREOF” (WENZHOU MEDICAL UNIVERSITY, priority 2021, published 2023)
Like-named read-outs stand apart in the source and are kept apart here.

Key:
ABL1 = ABL1 (Homo sapiens (Human), UniProt P00519); assay: Caliper Mobility Shift kinase inhibition test; format: biochemical; conditions: 100 nM; read-out: inhibitory rate on ABL1
Experimental: (§1) The method adopted in the test was Caliper Mobility Shift Assay, which was a detection platform based on the mobility detection technology of microfluidic chip technology. […] Collected data was tested on Caliper to yield that inhibition ratio to kinase activity=(max−conversion)/(max−min)×100. “max” was DMSO control without adding compound, and “min” was low control. When IC50 was determined, each sample was provided with 10 dilutions, each with 2 multiple holes, and repeated for 3 times.

PDGFRα = PDGFRα (Homo sapiens (Human), UniProt P16234); assay: Caliper Mobility Shift kinase inhibition test; format: biochemical; conditions: for inhibition at 0.1 µM: 100 nM
PDGFRα, sequence (P16234 24-1089): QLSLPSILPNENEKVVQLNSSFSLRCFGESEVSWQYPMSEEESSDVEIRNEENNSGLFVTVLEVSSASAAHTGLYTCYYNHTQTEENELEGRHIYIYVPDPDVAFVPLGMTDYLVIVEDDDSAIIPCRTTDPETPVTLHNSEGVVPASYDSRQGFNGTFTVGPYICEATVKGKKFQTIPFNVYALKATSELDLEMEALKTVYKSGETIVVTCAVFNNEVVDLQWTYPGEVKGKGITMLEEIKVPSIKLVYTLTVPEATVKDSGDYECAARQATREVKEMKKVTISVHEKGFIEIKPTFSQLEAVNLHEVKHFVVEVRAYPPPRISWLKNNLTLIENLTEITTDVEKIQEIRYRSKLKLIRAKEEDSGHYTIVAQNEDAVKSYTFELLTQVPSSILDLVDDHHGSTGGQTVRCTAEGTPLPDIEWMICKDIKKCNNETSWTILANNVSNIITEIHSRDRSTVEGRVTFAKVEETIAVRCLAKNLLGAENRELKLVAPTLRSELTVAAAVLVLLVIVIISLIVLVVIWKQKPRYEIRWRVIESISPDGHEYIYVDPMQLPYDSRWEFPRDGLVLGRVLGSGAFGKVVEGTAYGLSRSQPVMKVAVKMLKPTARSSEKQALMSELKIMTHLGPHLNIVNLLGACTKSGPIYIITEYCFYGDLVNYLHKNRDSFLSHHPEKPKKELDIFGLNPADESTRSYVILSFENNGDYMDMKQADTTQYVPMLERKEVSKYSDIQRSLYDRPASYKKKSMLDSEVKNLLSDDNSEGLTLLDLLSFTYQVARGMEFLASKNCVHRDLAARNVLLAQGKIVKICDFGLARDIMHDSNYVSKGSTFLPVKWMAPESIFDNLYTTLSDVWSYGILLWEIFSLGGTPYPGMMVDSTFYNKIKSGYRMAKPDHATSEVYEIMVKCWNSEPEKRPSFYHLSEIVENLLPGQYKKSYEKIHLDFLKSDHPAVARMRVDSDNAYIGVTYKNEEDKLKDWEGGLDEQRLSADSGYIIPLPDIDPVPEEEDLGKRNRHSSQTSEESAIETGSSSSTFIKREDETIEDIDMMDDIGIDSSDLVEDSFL
Experimental: as §1

FGFR2 = FGFR2 (Homo sapiens (Human), UniProt P21802); assay: Caliper Mobility Shift kinase inhibition test; format: biochemical; conditions: for inhibition at 0.1 µM: 100 nM
FGFR2, sequence (P21802 22-821, species assumed): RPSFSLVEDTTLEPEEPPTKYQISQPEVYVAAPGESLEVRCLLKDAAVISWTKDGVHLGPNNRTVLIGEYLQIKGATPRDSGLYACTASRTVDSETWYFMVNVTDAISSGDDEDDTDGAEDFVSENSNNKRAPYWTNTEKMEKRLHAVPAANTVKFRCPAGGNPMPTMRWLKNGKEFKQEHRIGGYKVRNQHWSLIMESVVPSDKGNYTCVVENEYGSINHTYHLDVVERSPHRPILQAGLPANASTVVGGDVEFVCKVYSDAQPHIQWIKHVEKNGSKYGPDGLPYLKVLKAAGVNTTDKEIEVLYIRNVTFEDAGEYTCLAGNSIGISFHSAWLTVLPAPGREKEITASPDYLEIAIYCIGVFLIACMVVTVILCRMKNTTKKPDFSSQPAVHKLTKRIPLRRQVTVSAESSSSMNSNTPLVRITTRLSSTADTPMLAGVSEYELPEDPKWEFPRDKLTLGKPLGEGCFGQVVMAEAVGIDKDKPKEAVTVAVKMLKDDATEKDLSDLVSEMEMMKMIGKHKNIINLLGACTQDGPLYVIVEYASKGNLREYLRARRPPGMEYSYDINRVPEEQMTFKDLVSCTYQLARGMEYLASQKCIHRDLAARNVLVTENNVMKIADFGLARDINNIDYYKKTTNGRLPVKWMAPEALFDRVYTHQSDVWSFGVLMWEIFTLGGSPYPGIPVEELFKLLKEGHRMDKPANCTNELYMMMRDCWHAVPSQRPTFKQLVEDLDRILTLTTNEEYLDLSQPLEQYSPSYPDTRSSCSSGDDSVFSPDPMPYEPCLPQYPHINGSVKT
Experimental: (§2) The method adopted in the test was Caliper Mobility Shift Assay, which was a detection platform based on the mobility detection technology of microfluidic chip technology. Test steps: 1.25× kinase reaction buffer (62.5 mmol/L HEPES, pH 7.5; 0.001875% Brij-35; 12.5 mmol/L MgCl2; 2.5 mM DTT) and kinase reaction stop solution (100 mmol/L HEPES, pH 7.5; 0.015% Brij-35; 0.2% Coating Reagent #3) were configured. […] Collected data was tested on Caliper to yield that inhibition ratio to kinase activity=(max−conversion)/(max−min)×100. “max” was DMSO control without adding compound, and “min” was low control. When IC50 was determined, each sample was provided with 10 dilutions, each with 2 multiple holes, and repeated for 3 times.
(§3) According to the above-mentioned method for measuring kinase inhibitory activity, the inhibitory activity of the active compounds on other multiple kinases was measured to characterize the kinase selectivity of active inhibitors.

JAK1 = JAK1 (Homo sapiens (Human), UniProt P23458); assay: Caliper Mobility Shift kinase inhibition test; format: biochemical; conditions: for inhibition at 0.1 µM: 100 nM
JAK1, sequence (P23458 whole entry, species assumed): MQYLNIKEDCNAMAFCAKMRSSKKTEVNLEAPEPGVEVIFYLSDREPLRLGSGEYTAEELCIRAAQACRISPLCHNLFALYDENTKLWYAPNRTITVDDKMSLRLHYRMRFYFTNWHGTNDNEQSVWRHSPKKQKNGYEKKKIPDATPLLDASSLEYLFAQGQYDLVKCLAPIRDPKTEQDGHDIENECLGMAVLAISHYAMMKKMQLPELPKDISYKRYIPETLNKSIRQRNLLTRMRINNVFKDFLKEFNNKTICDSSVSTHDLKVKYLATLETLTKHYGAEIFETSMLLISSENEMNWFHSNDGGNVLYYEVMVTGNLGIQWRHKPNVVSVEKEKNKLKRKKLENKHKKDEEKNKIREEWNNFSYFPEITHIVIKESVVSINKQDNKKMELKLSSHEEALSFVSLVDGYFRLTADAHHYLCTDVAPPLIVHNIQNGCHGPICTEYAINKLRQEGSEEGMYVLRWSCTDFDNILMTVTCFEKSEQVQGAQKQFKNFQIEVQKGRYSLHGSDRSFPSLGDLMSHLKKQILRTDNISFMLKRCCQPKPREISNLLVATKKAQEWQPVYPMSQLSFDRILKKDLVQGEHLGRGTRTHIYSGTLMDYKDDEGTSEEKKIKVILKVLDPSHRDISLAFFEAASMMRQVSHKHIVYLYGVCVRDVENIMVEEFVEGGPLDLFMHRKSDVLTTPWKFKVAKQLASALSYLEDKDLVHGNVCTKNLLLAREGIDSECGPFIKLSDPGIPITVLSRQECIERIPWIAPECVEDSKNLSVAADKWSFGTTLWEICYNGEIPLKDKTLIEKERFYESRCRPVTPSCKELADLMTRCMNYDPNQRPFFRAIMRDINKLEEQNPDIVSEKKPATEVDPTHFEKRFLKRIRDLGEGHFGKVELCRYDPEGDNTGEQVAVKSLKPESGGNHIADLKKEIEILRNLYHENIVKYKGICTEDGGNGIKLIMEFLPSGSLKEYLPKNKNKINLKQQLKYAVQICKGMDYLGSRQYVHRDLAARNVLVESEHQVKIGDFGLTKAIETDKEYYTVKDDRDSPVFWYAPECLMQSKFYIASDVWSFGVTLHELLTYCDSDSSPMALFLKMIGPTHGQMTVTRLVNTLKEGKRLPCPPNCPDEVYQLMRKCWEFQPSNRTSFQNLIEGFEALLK
Experimental: as §2, §3

PDGFRβ = PDGFRβ (Homo sapiens (Human), UniProt P09619); assay: Caliper Mobility Shift kinase inhibition test; format: biochemical; conditions: for inhibition at 0.1 µM: 100 nM
PDGFRβ, sequence (P09619 33-1106): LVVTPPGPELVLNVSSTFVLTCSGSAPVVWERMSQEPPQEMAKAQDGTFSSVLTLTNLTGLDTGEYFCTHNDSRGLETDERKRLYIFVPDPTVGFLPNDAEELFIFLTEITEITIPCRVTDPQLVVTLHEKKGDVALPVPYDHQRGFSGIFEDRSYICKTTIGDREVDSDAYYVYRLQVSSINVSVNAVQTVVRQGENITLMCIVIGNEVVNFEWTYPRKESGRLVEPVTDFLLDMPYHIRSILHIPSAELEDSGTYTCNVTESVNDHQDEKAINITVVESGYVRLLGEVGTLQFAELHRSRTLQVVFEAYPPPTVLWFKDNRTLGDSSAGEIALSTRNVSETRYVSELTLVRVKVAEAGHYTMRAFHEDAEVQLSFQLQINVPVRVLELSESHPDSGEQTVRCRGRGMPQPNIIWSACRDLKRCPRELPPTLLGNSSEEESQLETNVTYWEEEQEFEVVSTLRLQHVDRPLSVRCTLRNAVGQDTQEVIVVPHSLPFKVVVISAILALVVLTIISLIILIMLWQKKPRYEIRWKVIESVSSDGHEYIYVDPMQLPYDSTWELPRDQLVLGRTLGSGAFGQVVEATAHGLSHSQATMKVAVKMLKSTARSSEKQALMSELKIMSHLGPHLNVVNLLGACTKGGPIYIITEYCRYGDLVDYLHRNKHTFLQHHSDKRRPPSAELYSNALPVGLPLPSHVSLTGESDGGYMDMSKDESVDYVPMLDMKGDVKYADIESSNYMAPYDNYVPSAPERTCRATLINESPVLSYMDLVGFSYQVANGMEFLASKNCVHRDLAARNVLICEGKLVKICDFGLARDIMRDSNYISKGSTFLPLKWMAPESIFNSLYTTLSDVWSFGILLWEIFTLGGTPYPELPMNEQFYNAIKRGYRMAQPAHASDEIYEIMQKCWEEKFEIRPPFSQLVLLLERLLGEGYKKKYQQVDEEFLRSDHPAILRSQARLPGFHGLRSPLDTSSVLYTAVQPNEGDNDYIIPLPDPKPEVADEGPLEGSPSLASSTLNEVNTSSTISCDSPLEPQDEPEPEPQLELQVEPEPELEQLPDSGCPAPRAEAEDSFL
Experimental: as §2, §3

ALK = ALK (Homo sapiens (Human), UniProt Q9UM73); assay: Caliper Mobility Shift kinase inhibition test; format: biochemical
Experimental: as §2

FLT3 = FLT3 (Homo sapiens (Human), UniProt P36888); assay: Caliper Mobility Shift kinase inhibition test; format: biochemical; conditions: 100 nM; read-out: inhibitory rate on FLT3
Experimental: as §2

IKK β = IKK β (Homo sapiens (Human), UniProt O14920); assay: Caliper Mobility Shift kinase inhibition test; format: biochemical
IKK β, sequence (O14920 whole entry, species assumed): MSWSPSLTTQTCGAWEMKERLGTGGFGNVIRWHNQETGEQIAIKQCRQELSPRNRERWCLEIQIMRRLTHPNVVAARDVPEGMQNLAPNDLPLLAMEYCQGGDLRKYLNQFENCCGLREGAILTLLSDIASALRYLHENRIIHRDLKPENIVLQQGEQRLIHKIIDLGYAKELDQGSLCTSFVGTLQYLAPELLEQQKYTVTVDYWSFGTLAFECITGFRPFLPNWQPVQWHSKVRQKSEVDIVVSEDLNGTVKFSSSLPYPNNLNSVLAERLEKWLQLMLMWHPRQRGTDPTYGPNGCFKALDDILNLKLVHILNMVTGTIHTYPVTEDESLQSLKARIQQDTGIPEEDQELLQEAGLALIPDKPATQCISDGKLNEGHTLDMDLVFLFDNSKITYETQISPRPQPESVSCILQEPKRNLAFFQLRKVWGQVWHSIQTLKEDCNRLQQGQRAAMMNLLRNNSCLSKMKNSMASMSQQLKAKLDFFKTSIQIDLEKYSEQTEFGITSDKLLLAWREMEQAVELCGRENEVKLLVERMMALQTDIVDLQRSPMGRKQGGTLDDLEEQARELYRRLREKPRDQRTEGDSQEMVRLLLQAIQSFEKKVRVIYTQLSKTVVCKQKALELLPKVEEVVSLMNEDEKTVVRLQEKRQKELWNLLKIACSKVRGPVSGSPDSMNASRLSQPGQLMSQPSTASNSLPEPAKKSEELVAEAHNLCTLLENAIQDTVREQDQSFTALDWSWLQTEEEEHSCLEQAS
Experimental: as §2

EGFR/T790M/L858R = EGFR/T790M/L858R (Homo sapiens (Human), UniProt P00533, L858R/T790M); assay: Kinase selectivity test; format: biochemical; conditions: 100 nM
Experimental: as §2, §3

MG-63 osteosarcoma cells = assay: MTT assay on osteosarcoma cells; format: cell-based; conditions: Homo sapiens, 48 hours, read-out: Inhibitory activity (IC50) MG-63
Experimental: (§4) Logarithmic osteosarcoma cells were inoculated into a 96-well plate with a cell concentration of 1,500 cell/well for 6 hours by using MTT assay, and each well was filled with 200 μL of cell suspension. […] The samples were cultured in an incubator for 48 hours (37° C., 5% CO2), and 20 v L of MTT (3-(4,5-dimethylthiazole-2)-2,5-diphenyltetrazole) were added into each hole. After continuous culture for 4 hours, the culture solution was discarded by suction, and 200 v L of DMSO were added to each well. […] Calculation method of IC50 value: the IC50 values of the samples were calculated by curve fitting with GraphPad Prism software.

[1] = test system: MNNG/HOS osteosarcoma cells; assay: MTT assay on osteosarcoma cells; format: cell-based; conditions: 48 hours, read-out: Inhibitory activity (IC50) MNNG/HOS
Experimental: as §4

[2] = test system: SAOS-2 osteosarcoma cells; assay: MTT assay on osteosarcoma cells; format: cell-based; conditions: Homo sapiens, 48 hours, read-out: Inhibitory activity (IC50) SAOS-2
Experimental: as §4

U2OS osteosarcoma cells = assay: MTT assay on osteosarcoma cells; format: cell-based; conditions: Homo sapiens, 48 hours, read-out: Inhibitory activity (IC50) U2OS
Experimental: as §4

[3] = test system: human normal retinal cells ARPE-19; assay: MTT assay on human retinal cells; format: cell-based
[4] = test system: human brain microvascular endothelial cells (HCMEC/D3); assay: MTT assay on human neovascular cells; format: cell-based
[5] = test system: human cerebrovascular pericytes (HBVP); assay: MTT assay on human neovascular cells; format: cell-based
osteosarcoma cells MG63 [6] = assay: Adhesion test of osteosarcoma cells on fibronectin; format: cell-based; conditions: 0.1, 0.2 and 0.4 uM, 48 hours, compared with positive drugs
Experimental: (§5) Each well was dried, and added with 100 μL of 33% glacial acetic acid and the crystal violet was dissolved by shaking for 10 minutes. The absorbance was measured by a microplate reader at […], and the adhesion rate (%)=(OD value of tumor cells in the drug-added treated group−Hu FN OD value)/(OD value of untreated tumor cells−Hu FN OD value)×100%.

osteosarcoma cells MNNG [7] = assay: Adhesion test of osteosarcoma cells on fibronectin; format: cell-based; conditions: 0.1, 0.2 and 0.4 uM, 48 hours, compared with positive drugs
Experimental: as §5

osteosarcoma cells MG63 [8] = assay: Metastasis (scratch migration) test of osteosarcoma cells; format: cell-based; conditions: 0.1, 0.2 and 0.4 uM, compared with positive drugs
Experimental: (§6) The cells were washed with sterile PBS for three times, and basal medium containing 2.5 μL of TCS was added respectively. Photographs were taken at 0 hour, 24 hours and 48 hours under an inverted microscope, and migration distances were measured with Imag J software.

osteosarcoma cells MNNG [9] = assay: as above; format: cell-based; conditions: 0.1, 0.2 and 0.4 uM, compared with positive drugs
Experimental: as §6

[10] = compared with multiple positive drugs

- inhibition at 0.1 µM (ABL1): 95.3%
- inhibitory activity on PDGFRα (in words) (PDGFRα): significant inhibitory activities
- inhibition at 0.1 µM (PDGFRα; average, read-out: Average % inhibition PDGFR α): > 100%
- inhibition at 0.1 µM (PDGFRα; replicate 1, read-out: % inhibition 1 PDGFR α): 98.9%
- inhibition at 0.1 µM (PDGFRα; replicate 2, read-out: % inhibition 2 PDGFR α): 103%
- inhibition at 0.1 µM (PDGFRα; read-out: inhibitory rate on PDGFR-α): 97.5%
- IC50 (PDGFRα; read-out: IC50 PDGFR-α): 0.0027 µM
- IC50 (FGFR2): 0.027 µM
- inhibition at 0.1 µM (FGFR2; average, read-out: Average % inhibition FGFR2): 83%
- inhibition at 0.1 µM (FGFR2; replicate 1, read-out: % inhibition 1 FGFR2): 83.8%
- inhibition at 0.1 µM (FGFR2; replicate 2, read-out: % inhibition 2 FGFR2): 82.1%
- IC50 (JAK1): 0.0077 µM
- inhibition at 0.1 µM (JAK1; average, read-out: Average % inhibition JAK1): 90.5%
- inhibition at 0.1 µM (JAK1; replicate 1, read-out: % inhibition 1 JAK1): 91.7%
- inhibition at 0.1 µM (JAK1; replicate 2, read-out: % inhibition 2 JAK1): 89.3%
- inhibitory activity on PDGFRβ (in words) (PDGFRβ): significant inhibitory activities
- inhibition at 0.1 µM (PDGFRβ; average, read-out: Average % inhibition PDGFR β): > 100%
- inhibition at 0.1 µM (PDGFRβ; replicate 1, read-out: % inhibition 1 PDGFR β): 101%
- inhibition at 0.1 µM (PDGFRβ; replicate 2, read-out: % inhibition 2 PDGFR β): 103%
- inhibition at 0.1 µM (PDGFRβ; read-out: inhibitory rate on PDGFR-β): 99.8%
- IC50 (PDGFRβ; read-out: IC50 PDGFR-β): 0.0017 µM
- IC50 (ALK): 0.005 µM
- inhibition at 0.1 µM (FLT3): 98.9%
- IC50 (IKK β): 0.694 µM
- inhibition at 0.1 µM (EGFR/T790M/L858R; average, read-out: Average % inhibition EGFR/T790M/L858R): 77.2%
- inhibition at 0.1 µM (EGFR/T790M/L858R; replicate 1, read-out: % inhibition 1 EGFR/T790M/L858R): 76.6%
- inhibition at 0.1 µM (EGFR/T790M/L858R; replicate 2, read-out: % inhibition 2 EGFR/T790M/L858R): 77.9%
- IC50 (MG-63 osteosarcoma cells): 0.438 ± 0.001 µM
- IC50 [1]: 1.03 ± 0.08 µM
- IC50 [2]: 0.37 ± 0.002 µM
- IC50 (U2OS osteosarcoma cells): 0.418 ± 0.017 µM
- inhibitory activity on ARPE-19 (in words) ([3]; at low concentration): almost no inhibitory activity
SMILES: CCN1CCN(c2ccc(Nc3ncc(C)c(Nc4ccc5cn[nH]c5c4)n3)cc2OC)CC1 [Compound 6i, N^2-(4-(4-ethylpiperazine-1-yl)-3-methoxyphenyl)-N^4-(1H-indazol-6-yl)-5-methylpyrimidine-2,4-diamine]
- IC50 ([3]; Homo sapiens, ARPE-19, MTT, read-out: Inhibitory activity (IC50) ARPE-19): 17.5 ± 0.37 µM
- IC50 ([4]; Homo sapiens, hCMEC/D3, MTT, read-out: Inhibitory activity (IC50) HCMEC-D3): 0.23 ± 0.002 µM
- inhibitory activity on HCMEC/D3 (in words) [4, 10]: strong inhibitory activity
- IC50 ([5]; Homo sapiens, MTT, read-out: Inhibitory activity (IC50) HBVP): 0.55 ± 0.098 µM
- inhibitory activity on HBVP (in words) [5, 10]: strong inhibitory activity
- inhibitory activity on adhesion (osteosarcoma cells MG63 [6]): strong dose-dependent inhibitory activity
- inhibitory activity on adhesion (osteosarcoma cells MNNG [7]): strong dose-dependent inhibitory activity
- inhibitory activity on metastasis (osteosarcoma cells MG63 [8]): strong dose-dependent inhibitory activity
- inhibitory activity on metastasis (osteosarcoma cells MNNG [9]): strong dose-dependent inhibitory activity
